In brackets after ≈: the same amount, converted by molar mass.
Columns and labels:
S. pyogenes 02C0203 [1] = experiment: AUC/MIC ratios required for efficacy (PK-PD); assay type: in vivo; details: free AUC required for efficacy against S. pyogenes 02C0203 in mice
Procedure: (§1) In this example, the plasma concentrations of selected compounds were determined in mice that were infected with S. pyogenes 02C0203 at an oral dose of 100 mg/kg^4. Plasma samples were assayed for selected compounds using LC/MS/MS with multiple reaction monitoring. Free fractions were measured using equilibrium dialysis^5.
(§2) Separate groups of immunosuppressed mice were infected as above and orally dosed 2 hours post-infection with 100 mg/kg of the selected compounds. Thigh tissue samples (10% in PBS) and plasma were collected at 0.5, 1, 2, 4, 8 and 24 hours post-dose (n=3) for quantitation of drug levels. Bacterial burden was quantitated in the thigh tissue samples from treated mice and from infected, untreated mice at each timepoint.

S. pyogenes 02C0203 [2] = experiment: In vitro MIC testing by microbroth dilution; assay type: cell-based, Streptococcus pyogenes; details: for antibacterial activity (in words): S. pyogenes 02C0203; for MIC: Streptococcus pyogenes, 02C0203, microbroth dilution, 35° C., 16 to 24 hours
Procedure: Except for clarifying or modifying statements, MIC testing followed procedures recommended by the NCCLS^1-2 or followed the descriptions cited below.
At least the following organisms are included in the screen: S. pyogenes 02C0203. Incubations were at 35° C. Stock bacterial cultures were maintained on Tryptic Soy Agar containing 5% Sheep Blood (BD, Becton Dickinson Microbiology Systems, Cockeysville, Md.), anaerobes were maintained on Anaerobic Blood Agar plates—CDC Formulation (BD), and fastidious organisms were maintained on Chocolate Agar II Plates (BD). Specific conditions of handling are listed below.
Frozen stock cultures were used as the initial source of organisms for performing microbroth dilution MIC testing. Stock cultures were passed on their standard growth medium for at least 1 growth cycle (18 to 24 hours) prior to their use.
Most bacteria, unless otherwise noted, were prepared directly from agar plates in 10 mL aliquots of the appropriate broth medium. Bacterial cultures were adjusted to the opacity of a 0.5 McFarland Standard (optical density value of 0.28-0.33 on a Perkin-Elmer Lambda EZ150 Spectrophotometer Wellesley, Mass., set at a wavelength of 600 nm). The adjusted cultures were diluted 400 fold (0.25 mL inoculum+100 mL broth) in growth media to produce a starting suspension of approximately 5×10^5 colony forming units (CFU)/mL. Unless otherwise noted, bacterial strains were tested in cation adjusted Mueller Hinton Broth (CAMHB).
Compounds were solubilized in DMSO. Drug stock solutions were prepared on the day of testing. Drugs were weight corrected for assay content where necessary.
Microbroth dilution stock plates were prepared in two dilution series, 64 to 0.06 μg drug/mL and 0.25 to 0.00025 μg drug/mL. For the high concentration series, 200 μL of stock solution ([…]) was added to duplicate rows of a 96-well microtiter plate. This was used as the first well in the dilution series. Serial two-fold decremental dilutions were made using a BioMek FX robot (Beckman Coulter Inc., Fullerton, Calif.) with 10 of the remaining 11 wells, each of which contained 100 μL of the appropriate solvent/diluent. Row 12 contained solvent/diluent only and served as the control. For tube one of the low concentration series, 200 µL of an 8 μg/mL stock was added to duplicate rows of a 96-well plate. Serial two-fold dilutions were made as described above.
Daughter plates were spotted (3.2 μL/well) from the stock plates listed above using the BioMek FX robot and were either used immediately or frozen at −70° C. until use.
Aerobic organisms were inoculated (100 μL volumes) into the thawed plates using the BioMek FX robot. The inoculated plates were placed in stacks of no more than 5 and covered with an empty plate. These plates were incubated 16 to 24 hours in ambient atmosphere according to CLSI guidelines^2.
After inoculation and incubation, the degree of bacterial growth was estimated visually with the aid of a Test Reading Mirror (Dynex Technologies 220 16) in a darkened room with a single light shining directly through the top of the microbroth tray. The MIC was the lowest concentration of drug that prevented macroscopically visible growth under the conditions of the test. Testing was performed in duplicate. When the MIC values in duplicate tests varied by 1 well (2-fold), the […] values were reported. If the MICs varied by 2 dilutions, the middle value was reported. […]

[3] = Plasma concentrations in infected mice after an oral dose (LC/MS/MS); assay type: in vivo; details: for concentration at 0.5 h / concentration at 1 h / concentration at 2 h / concentration at 4 h / concentration at 8 h / concentration at 24 h: CF-1, mouse, plasma, infected mice (n = 3), oral 100 mg/kg; for oral exposure (in words): mice infected with S. pyogenes 02C0203, 100 mg/kg
Procedure: as §1, §2

S. pyogenes 02C0203 [4] = experiment: Neutropenic soft tissue (thigh abscess) infection model; assay type: in vivo, CF-1 female mice; details: thigh tissue 24 hours post-dose
Procedure: In this example, the in vivo antibacterial efficacy of selected compounds was determined in a neutropenic soft tissue infection model in CF-1 female mice challenged with Streptococcus pyogenes 02C0203. With the exception of modifications discussed here, the murine soft tissue infection model was previously described by Craig et al. (6, 7, 8).
CF-1 female mice were immunosuppressed with oral doses of cyclophosphamide in sterile water on Day-4 (150 mg/kg) and Day-1 (100 mg/kg). Mice were infected intramuscularly (thigh muscle) with 7×10^5 cfu of S. pyogenes 02C0203 in 0.1 ml brain heart infusion broth on Day 0. Two hours post-infection, mice received a single oral dose of selected compounds. The compounds were administered orally from a spray dried dispersion (SDD) in 0.5% (wt/v) methylcellulose (MC), 0.5% (wt/v) hydroxypropyl methylcellulose acetate succinate medium, fine powder (HPMCAS-MF) in 20 mM Tris buffer (pH 7.4). Thigh tissue was collected 24 hours post-dose. Serial ten-fold dilutions of tissue homogenates prepared in sterile phosphate buffered saline were plated on 5% sheep blood agar plates for enumeration of bacterial burden.
as §2

Row | Structure (SMILES) | Target fAUC (S. pyogenes 02C0203 [1]) [ng·h/mL] | antibacterial activity (in words) (S. pyogenes 02C0203 [2]) | MIC (S. pyogenes 02C0203 [2]) [µg/mL] | concentration at 0.5 h [3] [ng/mL] | concentration at 1 h [3] [ng/mL] | concentration at 2 h [3] [ng/mL] | concentration at 4 h [3] [ng/mL] | concentration at 8 h [3] [ng/mL] | concentration at 24 h [3] [ng/mL] | oral exposure (in words) [3] | Log10 geometric mean recoverable cfu (S. pyogenes 02C0203 [4]; single oral dose 12.5 mg/kg) | Mean log10 cfu reduction vs. infected controls (S. pyogenes 02C0203 [4]; single oral dose 12.5 mg/kg) | Log10 geometric mean recoverable cfu (S. pyogenes 02C0203 [4]; single oral dose 25 mg/kg) | Mean log10 cfu reduction vs. infected controls (S. pyogenes 02C0203 [4]; single oral dose 25 mg/kg) | Log10 geometric mean recoverable cfu (S. pyogenes 02C0203 [4]; single oral dose 50 mg/kg) | Mean log10 cfu reduction vs. infected controls (S. pyogenes 02C0203 [4]; single oral dose 50 mg/kg) | Log10 geometric mean recoverable cfu (S. pyogenes 02C0203 [4]; single oral dose 100 mg/kg) | Mean log10 cfu reduction vs. infected controls (S. pyogenes 02C0203 [4]; single oral dose 100 mg/kg) | Log10 geometric mean recoverable cfu (S. pyogenes 02C0203 [4]; single oral dose 200 mg/kg) | Mean log10 cfu reduction vs. infected controls (S. pyogenes 02C0203 [4]; single oral dose 200 mg/kg)
1 | CCc1coc(-c2cc3c(c(F)c2F)N2C[C@H](C)O[C@H](C)[C@H]2C2(C3)C(=O)NC(=O)NC2=O)n1 (racemic) [Example 9, (2S,4R,4aR)-8-(4-ethyloxazol-2-yl)-9,10-difluoro-2,4-dimethyl-2,4,4a,6-tetrahydro-1H,1′H-spiro[[1,4]oxazino[4,3-a]quinoline-5,5′-pyrimidine]-2′,4′,6′(3′H)-trione] | 4000 | antibacterial activity | 1 (≈ 2.17 µM) | 19400 | 19000 | 23000 | 22900 | 18100 | 2180 | demonstrated oral exposure | – | – | – | – | – | – | – | – | – | –
2 | Cc1cc(-c2cc3c(c(F)c2F)N2C[C@@H](C)O[C@@H](C)[C@@H]2C2(C3)C(=O)NC(=O)NC2=O)on1 (single isomer, unassigned) [Example 2] | – | – | – | – | – | – | – | – | – | – | 6.23 | 0.47 | 5.76 | 0.94 | 5.07 | 1.63 | 2.11 | 4.59 | 1.92 | 4.78
3 | Cc1ncc(-c2cc3c(cc2F)N2C[C@@H](C)O[C@@H](C)[C@@H]2C2(C3)C(=O)NC(=O)NC2=O)cn1 [Comparator Compound from the Literature, reference compound] | – | – | 2 (≈ 4.55 µM) | 11100 | 17100 | 16000 | 8530 | 3700 | 1400 | – | 6.48 | −0.11 | 6.52 | −0.07 | 6.48 | −0.11 | 4.62 | −1.97 | 4.32 | −2.27
4 | Cc1coc(-c2cc(F)c3c(c2)CC2(C(=O)NC(=O)NC2=O)[C@H]2[C@H](C)O[C@H](C)CN32)n1 (single isomer, unassigned) [Example 1] | 2000 | antibacterial activity | 1 (≈ 2.33 µM) | 13500 | 13300 | 21500 | 24500 | 7450 | 176 | demonstrated oral exposure | 6.17 | 0.53 | 5.45 | 1.25 | 4.60 | 2.10 | 3.49 | 3.21 | 2.85 | 3.85

Reference: patent US8952149B2, “Tricyclic tetrahydroquinoline antibacterial agents” (Zoetis LLC, priority 2012, dated 2015)
